Test results published in patent publication US20250129032A1 (Nerio Therapeutics, Inc., priority 2022, published 2025).
pIC50: −log10 of the molar value.

Tests used:
[1] = biological target: untagged, full-length human PTPN2 (TC45) (1-387) protein (Homo sapiens (Human), UniProt P17706); experiment: Enzymatic assay used to determine potency of PTPN2 inhibitors (DiFMUP substrate); assay type: biochemical; details: 0.5 nM PTPN2, 100 μM DiFMUP, 30 min at room temperature
Source text: Compounds were subsequently added using a Tecan D300e dispenser. […] A four-parameter curve fit was used to determine IC50 values from % inhibition data.

[2] = tested on: murine B16F10 melanoma cell line; experiment: B16F10 IFNγ-induced cellular growth inhibition assay (xCELLigence RTCA); assay type: cell-based; details: Mus musculus, B16-F10, 48 h; read-out: B16 IFNγ Mediated Growth Inhibition Assay: AVG IC50
Protocol: Example B: B16F10 Cellular Growth Inhibition Assay Compound activity was determined using an interferon gamma (IFNγ)-induced cellular growth inhibition assay with the murine B16F10 melanoma cell line on an Agilent xCELLigence Real-Time Cell Analysis platform (RTCA). RTCA E-Plate View 96 plates (Agilent, 300601010) were pre-equilibrated with 50 μL of assay media (DMEM+10% FBS, Gibco 10566-024, Gibco 10082-147) at 37° C. in a humidified incubator before taking an initial measurement of impedance (sweep). B16F10 cells cultured in assay media were dissociated with TrypLE Express (Gibco 12605-010) for five minutes at 37° C., diluted in 3 volumes of assay buffer, centrifuged for 5 minutes at 500×g at room temperature before diluting cells to 7,700 cells/mL in assay media, plating 130 μL/well (1,000 cells/well) in the inner 60 wells of the assay plate, and adding 150 μL of assay media to the outer wells of the plate. Cells were incubated at room temperature for 20 min to allow cells to settle before placing them in the xCELLigence reader and incubating overnight at 37° C., sweeping wells every 15 minutes. After 24 hours, well readings were paused, plates were removed from the incubator and compounds were added using a Tecan D300e dispenser. All wells were normalized to a final concentration of 0.5% DMSO. Following a 30 min incubation at 37° C., recombinant mouse IFNγ (R&D Systems™ 485MI100) was diluted to 10 ng/mL in assay media and 20 μL was added to assay wells (1 ng/mL final concentration). Assay plates were placed in the xCELLigence reader and swept every 15 minutes. After 48 hours, well readings were normalized to the time point immediately preceding compound addition and the area under the growth curve (AUC) was calculated by the RTCA software and exported.

untagged, full-length human PTPN2 (TC45) (1-387) protein, sequence (P17706 other isoform, or with tags, fused parts or gaps): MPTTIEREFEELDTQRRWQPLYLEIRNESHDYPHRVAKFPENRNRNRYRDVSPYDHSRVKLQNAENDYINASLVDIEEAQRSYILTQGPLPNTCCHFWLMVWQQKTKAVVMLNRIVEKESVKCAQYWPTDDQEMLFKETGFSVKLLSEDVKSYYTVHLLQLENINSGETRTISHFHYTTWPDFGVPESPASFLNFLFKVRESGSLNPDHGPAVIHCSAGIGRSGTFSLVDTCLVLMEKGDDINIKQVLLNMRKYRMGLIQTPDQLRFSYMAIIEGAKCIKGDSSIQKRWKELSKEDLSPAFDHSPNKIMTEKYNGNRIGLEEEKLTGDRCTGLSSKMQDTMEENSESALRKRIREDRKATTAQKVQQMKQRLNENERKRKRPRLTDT

Row | Structure (SMILES) | pIC50 [1] | pIC50 [2]
1 | NCC[C@@H]1CCc2cc(O)c(N3CC(=O)NS3(=O)=O)c(F)c2CC1 (single isomer, unassigned) [Example 1] | 8.29 | 
2 | NCC[C@H]1CCc2cc(O)c(N3CC(=O)NS3(=O)=O)c(F)c2CC1 (single isomer, unassigned) [Example 2] | 6.75 | 
3 | N[C@H]1CCc2cc(O)c(N3CC(=O)NS3(=O)=O)c(F)c2CC1 (single isomer, unassigned) [Example 6] | 8.25 | 5.79
4 | N[C@@H]1CCc2cc(O)c(N3CC(=O)NS3(=O)=O)c(F)c2CC1 (single isomer, unassigned) [Example 7] | 6.35 | < 4.00
5 | O=C1CN(c2c(O)cc3c(c2F)CC[C@@H](NCCC2CCCC2)CC3)S(=O)(=O)N1 (single isomer, unassigned) [Example 10] | 8.30 | 5.18
6 | O=C1CN(c2c(O)cc3c(c2F)CC[C@H](NCCC2CCCC2)CC3)S(=O)(=O)N1 (single isomer, unassigned) [Example 11] | 6.83 | < 4.00
7 | O=C1CN(c2c(O)cc3c(c2F)CC[C@@H](N2CCCC2)CC3)S(=O)(=O)N1 (single isomer, unassigned) [Example 14] | 7.87 | 4.82
8 | O=C1CN(c2c(O)cc3c(c2F)CC[C@H](N2CCCC2)CC3)S(=O)(=O)N1 (single isomer, unassigned) [Example 15] | 7.10 | 4.77
9 | O=C1CN(c2c(O)cc3c(c2F)CC[C@@H](N2CCC4(CCC4)C2)CC3)S(=O)(=O)N1 (single isomer, unassigned) [Example 16] | 7.97 | 5.18
10 | O=C1CN(c2c(O)cc3c(c2F)CC[C@H](N2CCC4(CCC4)C2)CC3)S(=O)(=O)N1 (single isomer, unassigned) [Example 17] | 7.03 | 4.87
11 | CN(C)[C@H]1CCc2cc(O)c(N3CC(=O)NS3(=O)=O)c(F)c2CC1 (single isomer, unassigned) [Example 18] | 6.06 | < 4.00
12 | CN(C)[C@@H]1CCc2cc(O)c(N3CC(=O)NS3(=O)=O)c(F)c2CC1 (single isomer, unassigned) [Example 19] | 7.91 | 5.57
13 | CCN[C@H]1CCc2cc(O)c(N3CC(=O)NS3(=O)=O)c(F)c2CC1 (single isomer, unassigned) [Example 20] | 7.90 | 5.38
14 | CCN[C@@H]1CCc2cc(O)c(N3CC(=O)NS3(=O)=O)c(F)c2CC1 (single isomer, unassigned) [Example 21] | 6.43 | 4.27
15 | CNC[C@H]1CCc2cc(O)c(N3CC(=O)NS3(=O)=O)c(F)c2CC1 (single isomer, unassigned) [Example 23] | 8.70 | 5.67
16 | CNC[C@@H]1CCc2cc(O)c(N3CC(=O)NS3(=O)=O)c(F)c2CC1 (single isomer, unassigned) [Example 24] | 7.12 | 
17 | CC(C)CCN[C@H]1CCCc2cc(O)c(N3CC(=O)NS3(=O)=O)c(F)c2C1 (single isomer, unassigned) [Example 26] | 7.70 | 5.30

Row | Structure (SMILES) | pIC50 [1] | pIC50 [2]
18 | CC(C)CCN[C@@H]1CCCc2cc(O)c(N3CC(=O)NS3(=O)=O)c(F)c2C1 (single isomer, unassigned) [Example 27] | 6.67 | < 4.15
19 | CNC1CCc2cc(O)c(N3CC(=O)NS3(=O)=O)c(F)c2CC1 (stereo not shown) [Example 3] | 7.78 | 5.29
20 | CN(C)C1CCc2cc(O)c(N3CC(=O)NS3(=O)=O)c(F)c2CC1 (stereo not shown) [Example 4] | 7.83 | 5.54
21 | CCNC1CCc2cc(O)c(N3CC(=O)NS3(=O)=O)c(F)c2CC1 (stereo not shown) [Example 5] | 7.76 | 5.60
22 | O=C1CN(c2c(O)cc3c(c2F)CCC(O)CC3)S(=O)(=O)N1 (stereo not shown) [Example 8] | 7.33 | 5.80
23 | O=C1CN(c2c(O)cc3c(c2F)CCC(N2CCCC2)CC3)S(=O)(=O)N1 (stereo not shown) [Example 9] | 7.67 | 5.38
24 | O=C1CN(c2c(O)cc3c(c2F)CCC(NC2CCCC2)CC3)S(=O)(=O)N1 (stereo not shown) [Example 12] | 7.70 | 5.39
25 | CC(C)(C)NC1CCc2cc(O)c(N3CC(=O)NS3(=O)=O)c(F)c2CC1 (stereo not shown) [Example 13] | 7.07 | < 4.00
26 | CC(C)CCNC1CCc2cc(O)c(N3CC(=O)NS3(=O)=O)c(F)c2CC1 (stereo not shown) [Example 22] | 7.61 | 
27 | CC(C)CCNC1CCCc2cc(O)c(N3CC(=O)NS3(=O)=O)c(F)c2C1 (stereo not shown) [Example 25, 5-(1-fluoro-3-hydroxy-8-(isopentylamino)-6,7,8,9-tetrahydro-5H-benzo[7]annulen-2-yl)-1,2,5-thiadiazolidin-3-one 1,1-dioxide] | 7.59 | 5.15
28 | CC(C)CCN(C)C1CCCc2cc(O)c(N3CC(=O)NS3(=O)=O)c(F)c2C1 (stereo not shown) [Example 28, 5-(1-fluoro-3-hydroxy-8-(isopentyl(methyl)amino)-6,7,8,9-tetrahydro-5H-benzo[7]annulen-2-yl)-1,2,5-thiadiazolidin-3-one 1,1-dioxide] | 7.40 | < 4.21
29 | O=C1CN(c2c(O)cc3c(c2F)CCCCC3)S(=O)(=O)N1 [Example 29, 5-(1-fluoro-3-hydroxy-6,7,8,9-tetrahydro-5H-benzo[7]annulen-2-yl)-1,2,5-thiadiazolidin-3-one 1,1-dioxide] | 6.96 | 4.87
30 | O=C1CN(c2c(O)cc3c(c2F)CCNCC3)S(=O)(=O)N1 [Example 30, 5-(6-fluoro-8-hydroxy-2,3,4,5-tetrahydro-1H-benzo[d]azepin-7-yl)-1,2,5-thiadiazolidin-3-one 1,1-dioxide] | 8.64 | 6.00
31 | CC(C)CCCN1CCc2cc(O)c(N3CC(=O)NS3(=O)=O)c(F)c2CC1 [Example 31, 5-(6-fluoro-8-hydroxy-3-(4-methylpentyl)-2,3,4,5-tetrahydro-1H-benzo[d]azepin-7-yl)-1,2,5-thiadiazolidin-3-one 1,1-dioxide] | 8.97 | 5.76
32 | N#CCC1CCc2cc(O)c(N3CC(=O)NS3(=O)=O)c(F)c2CC1 (stereo not shown) [Example 32] | 7.33 | 4.83
33 | CN(C)CCC1CCc2cc(O)c(N3CC(=O)NS3(=O)=O)c(F)c2CC1 (stereo not shown) [Example 33] | 7.68 | 
